Measurements from paper PMC5913971, “A Novel Piperazine-Based Drug Lead for Cryptosporidiosis from the Medicines for Malaria Venture Open-Access Malaria Box” (Antimicrobial Agents and Chemotherapy, 2018).
Read-outs that look alike come from different tables or passages of the source.

Tests used:
[1] = test system: C. parvum Iowa isolate; assay: Immunofluorescence assay for C. parvum growth inhibition in HCT-8 cells; type: cell-based, Cryptosporidium parvum; settings: Table S1, confirmed screening hits, read-out: C. parvum EC50 (95% CI)
Experimental: Inhibition of C. parvum growth was measured as described previously ([20]). Oocysts were excysted by treatment with 10 mM hydrochloric acid (10 min at 37°C), followed by exposure to 2 mM sodium taurocholate (Sigma-Aldrich) in PBS for 10 min at 16°C. Excysted oocysts were then added to >95% confluent HCT-8 cell monolayers in 384-well plates at a concentration of 5,500 Iowa isolate oocysts per well. For C. parvum field isolates, the inoculum required to yield an infection level similar to that produced by 5,500 Iowa isolate oocysts per well was determined and was used for subsequent assays of parasite inhibition. Compounds were added just before or 3 h after infection, and assay plates were incubated for 48 h postinfection at 37°C under 5% CO2. Wells were then washed three times with PBS containing 111 mM D-galactose, fixed with 4% paraformaldehyde in PBS for 15 min at room temperature, permeabilized with 0.25% Triton X-100 for 10 min at 37°C, washed three times with PBS with 0.1% Tween 20, and blocked with 4% bovine serum albumin (BSA) in PBS for 2 h at 37°C or 4°C overnight. Parasitophorous vacuoles were stained with 1.33 μg/ml of fluorescein-labeled Vicia villosa lectin (Vector Laboratories) diluted in 1% BSA in PBS with 0.1% Tween 20 for 1 h at 37°C, followed by the addition of Hoechst 33258 (AnaSpec) at a final concentration of 0.09 mM diluted in water for another 15 min at 37°C. Wells were then washed five times with PBS containing 0.1% Tween 20. A Nikon Eclipse TE2000 epifluorescence microscope with an automated stage was programmed using NIS-Elements Advanced Research software (Nikon, USA) to focus on the center of each well and take a 3-by-3 composite image using an EXi Blue fluorescence microscopy camera (QImaging, Canada) with a 20× objective (numerical aperture, 0.45). Nucleus and parasite images were exported separately as .tif files and were analyzed using macros developed on the ImageJ platform (National Institutes of Health) ([20]). The only modification from the published macro used to count parasites was that the lower size threshold for parasites was decreased from 16.5 to 4 pixels (1 pixel = 0.65 μm). Graphs were plotted, and half-maximal effective concentration (EC50) and 90% effective concentration (EC90) values were calculated using GraphPad Prism software, version 6.01. For every C. parvum field isolate experiment, a dose-response experiment against the C. parvum Iowa isolate was performed simultaneously as a reference.

[2] = test system: C. parvum Iowa isolate; assay: NOD SCID gamma (NSG) mouse model of chronic cryptosporidiosis, fecal qPCR; type: in vivo, NOD SCID gamma mice; settings: for short-term efficacy on oocyst shedding in NSG mice: Fig. 2B, dose not given
Experimental: All NOD SCID gamma mouse studies were performed in compliance with animal care guidelines and were approved by the University of Vermont Institutional Animal Care and Use Committee. NOD SCID gamma mice with normal flora (NOD.Cg-Prkdc^scid Il2rg^tm1Wjl/SzJ) ([38]) were purchased from The Jackson Laboratory (Bar Harbor, ME, USA) and were housed for at least a week for acclimatization. At the age of 4 to 5 weeks, mice were infected with 10^5 C. parvum Iowa isolate oocysts. Fecal oocyst shedding is detected 6 days after infection using a quantitative PCR (qPCR assay), so treatment was started on day 7 after infection. Mice (4 per experimental group) were treated either orally (p.o.) with MMV665917 at 30 or 60 mg/kg BID, intraperitoneally (i.p.) with MMV665917 at 60 mg/kg BID, or p.o. with 1,000 mg/kg paromomycin BID. MMV665917 was suspended in DMSO, sonicated three times, for 30 s each time, to obtain a fine suspension, aliquoted, and stored at −80°C for <10 days. On the day of treatment, aliquots of MMV665917 diluted in DMSO were thawed, mixed well using a vortexer, diluted with 1% HPMC, sonicated as before (three times for 30 s each time), mixed well, and given to mice either p.o. or by i.p. injection. A final concentration of 5% DMSO was used in 100 μl of 1% HPMC per dose. For the additional Malaria Box compounds and compound variants tested, the doses were prepared in the same way, and the specific dosages tested are given in Table S3 in the supplemental material. Mice were treated for either 4 or 7 days, allowed to recover for a week, and then sacrificed. Oocyst shedding in feces was monitored throughout by qPCR, including time points while on treatment and while monitoring for relapsed infection following completion of treatment in Fig. 2A.

[3] = test system: C. parvum Iowa isolate; assay: IFN-γ knockout mouse model of acute cryptosporidiosis; type: in vivo, C57BL/6 IFN-γ−/− mice; settings: dose not given
Experimental: All interferon gamma (IFN-γ) knockout mouse studies were performed in compliance with animal care guidelines and were approved by the Explora BioLabs (San Diego, CA) Institutional Animal Care and Use Committee. Four-week-old female C57BL/6 IFN-γ^−/− mice with normal flora were purchased from The Jackson Laboratory and were acclimated for 3 days prior to infection by oral gavage with 10^6 C. parvum Iowa isolate oocysts (Sterling Parasitology Laboratory, University of Arizona) suspended in sterile distilled water. At various times postinfection, mice were treated with the compound vehicle alone, clofazimine (used as a positive control), or MMV665917. As described previously, fecal parasite shedding was quantified at various times postinfection by isolating oocysts using a sucrose gradient centrifugation method ([39]), followed by staining for immunofluorescence microscopy using a fluorescein isothiocyanate-conjugated mouse anti-Cryptosporidium antibody (0.25 μg per sample) and analysis with a Guava easyCyte flow cytometer and CytoSoft data acquisition and analysis software (version 5.3; Guava Technologies, Inc.). Oocyst counts per milliliter of sample were exported to Excel (Microsoft Corp.) and were normalized to counts per milligram of feces. Final data analysis and graphing were carried out using GraphPad Prism software (version 6.01).

[4] = test system: C. parvum; assay: Parasite persistence (time-kill) assay in HCT-8 cells; type: cell-based, Cryptosporidium parvum; settings: for parasite persistence: highest nontoxic concentrations, added 24 h after infection
Experimental: Excysted C. parvum oocysts were added to >90% confluent HCT-8 cells in 384-well plates. […] At ∼24 h (i.e., the time of compound addition) and at various time intervals thereafter, parasites were washed, fixed, permeabilized, stained, and imaged as for the C. parvum growth assay. For the extended-compound-exposure experiments, the medium and compound were replaced every 3 days. A separate 384-well plate was used for each time interval. Parasite numbers were normalized to host cell nucleus numbers and are expressed as the percentage of parasites per host cell nucleus. In order to fit parasite decay curves, the effect of drugs was isolated from expected changes in parasite numbers over time by expressing the number of parasites as the percentage of the number of parasites with the control, dimethyl sulfoxide (DMSO), for each time point. Exponential decay curves were fit using GraphPad Prism software, version 6.01, and curve validity was assessed using the replicates test.

[5] = dose 50 mg/kg, interval 12 h, duration 4 days
[6] = dose 100 mg/kg, interval 24 h, duration 7 days

EC50 ([1]; Cryptosporidium parvum, HCT-8) [µM] | SMILES | NSG efficacy [2, 5] | also measured
0.21 | Cc1ccnc(NC(c2cccc(OCc3ccccc3)c2)c2ccc3cccnc3c2O)c1 (stereo not shown) [MMV000720, Cc1ccnc(NC(c2cccc(OCc3ccccc3)c2)c4ccc5cccnc5c4O)c1] |  | 
0.29 | Oc1c(CN2CCN(c3ccccc3F)CC2)cc(Br)c2cccnc12 [MMV000760, Oc1c(CN2CCN(CC2)c3ccccc3F)cc(Br)c4cccnc14] |  | 
1.8 | CSc1ccccc1C(=O)Nc1nc(-c2ccccn2)cs1 [MMV001246, CSc1ccccc1C(=O)Nc2nc(cs2)c3ccccn3] | No | 
 | c1ccc(CNc2nc(NC3CCCC3)nc3ccccc23)cc1 [MMV006169 v2, C1CCC(C1)Nc1nc(NCc2ccccc2)c2c(n1)cccc2] | No | 
 | COc1ccc(Nc2nc(NCc3ccccc3Cl)c3ccccc3n2)cc1Cl [MMV006169 v3, COc1ccc(cc1Cl)Nc1nc(NCc2ccccc2Cl)c2c(n1)cccc2] | No | 
 | c1ccc(CNc2nc(Nc3ccccc3)nc3ccccc23)cc1 [MMV006169, C(Nc1nc(Nc2ccccc2)nc3ccccc13)c4ccccc4] | No | EC50 [1]: 1.5 µM
2.6 | O=C1c2ccc3c4c(ccc(c24)C(=O)N1CCCCO)C(=O)N(CCCCO)C3=O [MMV009085, OCCCCN1C(=O)c2ccc3C(=O)N(CCCCO)C(=O)c4ccc(C1=O)c2c34] |  | 
3.5 | COc1cccc(Nc2nc(NCCO)c3ccccc3n2)c1 [MMV011944, n1c(NCCO)c2c(cccc2)nc1Nc3cccc(OC)c3] |  | 
 | COc1ccc(C(=O)Nc2cc(C)nn2-c2nc3c(cnn3-c3cccc(C)c3)c(=O)[nH]2)c(OC)c1 [MMV403679 v1, c31c(cnn1-c2cc(ccc2)C)C(=O)NC(=N3)n4c(cc(n4)C)NC(=O)c5c(cc(cc5)OC)OC] |  | NSG efficacy [2, 6]: No
 | Cc1cccc(-n2ncc3c(=O)[nH]c(-n4nc(C)cc4NC(=O)C4CC4)nc32)c1 [MMV403679 v2, c31c(cnn1-c2cc(ccc2)C)C(=O)NC(=N3)n4c(cc(n4)C)NC(=O)C5CC5] |  | NSG efficacy [2, 6]: No
 | Cc1cccc(-n2ncc3c(=O)[nH]c(-n4nc(C)cc4NC(=O)C4CCCC4)nc32)c1 [MMV403679 v3, c31c(cnn1-c2cc(ccc2)C)C(=O)NC(=N3)n4c(cc(n4)C)NC(=O)C5CCCC5] |  | NSG efficacy [2, 6]: No
 | Cc1cc(NC(=O)c2cc3ccccc3o2)n(-c2nc3c(cnn3-c3ccccc3)c(=O)[nH]2)n1 [MMV403679 v4, c31c(cnn1-c2ccccc2)C(=O)NC(=N3)n4c(cc(n4)C)NC(=O)c5oc6c(c5)cccc6] |  | NSG efficacy [2, 6]: No
 | Cc1cccc(-n2ncc3c(=O)[nH]c(-n4nc(C)cc4N)nc32)c1 [MMV403679 v5, c31c(cnn1-c2cc(ccc2)C)C(=O)NC(=N3)n4c(cc(n4)C)N] |  | NSG efficacy [2, 6]: No
 | Cc1cccc(-n2ncc3c(=O)[nH]c(-n4nc(C)cc4NC(=O)c4cc5ccccc5o4)nc32)c1 [MMV403679, c1(c(cnn1c2cccc(C)c2)C(=O)N3)N=C3n4nc(C)cc4NC(=O)c5cc(cccc6)c6o5] |  | EC50 [1]: 0.12 µM
0.59 | Oc1c(C(Nc2ccccn2)c2cccc(Oc3ccccc3)c2)ccc2cccnc12 (stereo not shown) [MMV665814, Oc1c(ccc2cccnc12)C(Nc3ccccn3)c4cccc(Oc5ccccc5)c4] | No | 
3.4 | O=C(Nc1ccc(Cl)c(Cl)c1)Nc1ccc(Cl)c(Cl)c1 [MMV665852, Clc1ccc(NC(=O)Nc2ccc(Cl)c(Cl)c2)cc1Cl] |  | 
3.3 | O=C(Nc1nc(-c2ccccn2)cs1)c1ccccc1Br [MMV665909, Brc1ccccc1C(=O)Nc2nc(cs2)c3ccccn3] | No | 
0.054 | COc1cccc(C(=O)NC(c2ccc(C)cc2)c2cc(Cl)c3cccnc3c2O)c1 (stereo not shown) [MMV665969, COc1cccc(c1)C(=O)NC(c2ccc(C)cc2)c3cc(Cl)c4cccnc4c3O] | No | 
 | CC(C)/N=c1\cc2n(-c3ccc(Cl)cc3)c3ccccc3nc-2cc1Nc1ccc(Cl)cc1 [clofazimine] |  | efficacy in IFN-γ KO mouse model of acute infection [3]: confirmed; short-term efficacy on oocyst shedding in NSG mice [2]: completely lacked efficacy; parasiticidal or parasitistatic for C. parvum [4]: parasitistatic; parasite persistence [4]: parasites persist
 | CC(=O)Oc1ccccc1C(=O)Nc1ncc([N+](=O)[O-])s1 [nitazoxanide] |  | short-term efficacy on oocyst shedding in NSG mice [2]: did not reduce oocyst shedding; parasiticidal or parasitistatic for C. parvum [4]: parasitistatic; parasite persistence [4]: parasites persist
 | NC[C@@H]1O[C@H](O[C@H]2[C@@H](O)[C@H](O[C@@H]3[C@@H](O)[C@H](N)C[C@H](N)[C@H]3O[C@H]3O[C@H](CO)[C@@H](O)[C@H](O)[C@H]3N)O[C@@H]2CO)[C@H](N)[C@@H](O)[C@@H]1O [paromomycin] |  | efficacy in IFN-γ KO mouse model of acute infection [3]: good efficacy; short-term efficacy on oocyst shedding in NSG mice [2]: ineffective; relapse after cessation of treatment ([2]; paromomycin 1,000 mg/kg p.o. BID, 7 days): relapsed promptly; parasiticidal or parasitistatic for C. parvum [4]: parasitistatic; percentage of host cells infected, extended treatment ([4]; day 13 of treatment, 12 × EC90, medium and drug replaced every 3 days): closely mirrored the pattern for the vehicle control; parasite persistence [4]: parasites persist

SMILES | EC50 ([1]; Cryptosporidium parvum, HCT-8) [µM] | NSG efficacy [2, 5] | also measured
Cc1cc(=O)oc2c1ccc1oc(C(=O)c3ccccc3)c(C)c12 [MMV006753, CC1=CC(=O)Oc2c1ccc3oc(C(=O)c4ccccc4)c(C)c23] | 0.25 |  | 
CN(C)c1ccc(C(O)(c2ccc(N(C)C)cc2)c2ccc(N(C)C)cc2)cc1 [MMV665941, CN(C)c1ccc(cc1)C(O)(c2ccc(cc2)N(C)C)c3ccc(cc3)N(C)C] | 0.83 | No | 
COc1ccc(C(=O)NC(c2ccc(Cl)cc2Cl)c2cc(Cl)c3cccnc3c2O)cc1 (stereo not shown) [MMV666054, COc1ccc(cc1)C(=O)NC(c2ccc(Cl)cc2Cl)c3cc(Cl)c4cccnc4c3O] | 0.81 |  | 
